Test results taken from patent US5066674A, “Carbamate inhibitors of cholesterol esterase and their use as hypolipidemic and hypocaloric agents” (University of Iowa Research Foundation, priority 1990, dated 1991).

Target: Pancreatic cholesterol esterase (CEase)
Experiment: CEase-catalyzed hydrolysis of p-nitrophenylbutyrate (PNPB), irreversible inhibition timecourse
Format: biochemical
Conditions: for Second-order inhibition rate constant ki/Ki: PNPB substrate, 25.0 °C, pH 7.3, 0.1M sodium phosphate, 0.1N NaCl, 1 mM Triton X100; for t1/2, half-life of irreversible inhibition: in presence of 10^-5 M inhibitor, calculated t1/2 = ln(2)/(ki[I])
Procedure: The CEase-catalyzed hydrolysis of the water-soluble substrate p-nitrophenylbutyrate (PNPB) is the reaction that was routinely used to characterize irreversible inhibitors. The reaction is followed at 25.0±0.1° C. and pH 7.3 in 0.1M sodium phosphate buffer that contains 0.1N NaCl, 1 mM Triton X100, and the appropriate concentrations of CEase and PNPB. Characterization of inhibitors occurs in three steps: First, inhibitor is added to CEase and the percent activity of the enzyme is measured as a function of time. A corresponding control (contains no inhibitor) measures the 100% activity level. Secondly, the pseudo-first order inhibition rate constant is calculated from the activity versus time data.
%A=(%AO -%Ainf)e^-kt +%Ainf (1)
The pseudofirst order inhibition rate constant is plotted versus [I]. If the plot is linear, the second-order inhibition rate constant, ki /Ki, is the slope of a linear-leastsquares fit of the plot. And, thirdly, if plot is nonlinear and hyperbolic, the following inhibition mechanism is indicated: [drawing 5] In this mechanism, the inhibitor first forms a reversible, noncovalent complex, EI, with the enzyme. An enzymic nucleophile, presumably the active site serine (cf. Scheme I) then attacks the carbonyl carbon of the carbamate functionality of the inhibitor, with subsequent expulsion of the aromatic leaving group. For the above mechanism, the dependence of k on [I] is described by the following equation: [formula] […] From this fit the maximum first-order inhibition rate constant (ki) and the dissociation constant of EI (Ki) were determined, and consequently ki /Ki could be calculated.

Structure (SMILES)	Second-order inhibition rate constant ki/Ki	t1/2, half-life of irreversible inhibition	Irreversible inhibition of CEase (statement in words) (comparison of second-order inhibition rate constants of Table I)
CCCCNC(=O)Oc1ccc(NC(C)=O)cc1 [p-Acetamidophenyl n-Butyl Carbamate]	40 M⁻¹ s⁻¹	29 min	–
CCCCCCNC(=O)Oc1ccc(NC(C)=O)cc1 [p-Acetamidophenyl n-Hexyl Carbamate]	493 M⁻¹ s⁻¹	2.3 min	–
CCCCCCCCNC(=O)Oc1ccc2ccccc2c1 [2-Naphthyl n-Octyl Carbamate]	1350 M⁻¹ s⁻¹	0.86 min	most potent irreversible carbamate inhibitor of CEase
CCCCCNC(=O)Oc1ccc(NC(C)=O)cc1 [p-Acetamidophenyl n-Pentyl Carbamate]	100 M⁻¹ s⁻¹	11.6 min	–
CCCCCCCCNC(=O)Oc1ccc(NC(C)=O)cc1 [p-Acetamidophenyl n-Octyl Carbamate]	100 M⁻¹ s⁻¹	11.6 min	–
